Assay results taken from EP4497439A1, “COMPOUNDS FOR THE TREATMENT OR PREVENTION OF GOUT” (Universitat de les Illes Balears, priority 2023, dated 2025).
Where two headings read alike, the source gives them in different places.

Tests used:
[1] = in vitro model of monosodium urate monohydrate (MSU) crystallization: naked eye observation and uric acid remaining in solution (phosphotungstic acid method); type: physicochemical; design: C100 (minimum concentration that totally prevented the formation of sodium urate crystals): unit not given here; conditions: for concentration capable of preventing the formation of MSU crystals (increased uric acid in solution) / C100 (minimum concentration that totally prevented the formation of sodium urate crystals): 5 days (120 h); for effect on the crystallization of MSU (formation of MSU crystals) / solubility of sodium urate in the tested fluid: compound 0.3 mM; for effect on the crystallization of MSU (formation of MSU crystals): uric acid 375 mg/L (2.23 mM), 6 days (144 h) plate images, 4 days uric acid in solution; for effect on the crystallization of MSU (formation of MSU crystals) / solubility of sodium urate in the tested fluid / C100 (minimum concentration that totally prevented the formation of sodium urate crystals): phosphate buffer 12 mM
[2] = doses of up to 400 mg three times a day; treatment of myopia; cited from earlier work
[3] = cited from earlier work
[4] = uric acid 375 mg/L, [Na+] 400 mM, pH 7.4

Structure (SMILES): Cn1c(=O)[nH]c(=O)c2[nH]cnc21 [3-methylxanthine]
- concentration capable of preventing the formation of MSU crystals (increased uric acid in solution) [1, 4]: ≤ 50 µM
- effect on the crystallization of MSU (formation of MSU crystals) ([1]; [Na+] 400 mM, pH 7.4): strong inhibition
- solubility of sodium urate in the tested fluid [1, 4]: significantly increased
- effects relative to those of 7-methylxanthine ([1]; same concentration): approximately half

Structure (SMILES): Cn1c(=O)[nH]c2[nH]c(=O)[nH]c(=O)c21 [7-methyluric acid]
- effect on the crystallization of MSU (formation of MSU crystals) ([1]; [Na+] 400 mM, pH 7.4): strong inhibition
- solubility of sodium urate in the tested fluid [1, 4]: significantly increased
- effects relative to those of 7-methylxanthine ([1]; same concentration): like those of 7-methylxanthine

Structure (SMILES): Cn1cnc2[nH]c(=O)[nH]c(=O)c21 [7-methylxanthine]
- formation of MSU crystals after 3 days ([1]; 50 µM, 100 µM and 150 µM, triplicates, uric acid 375 mg/L, [Na+] 400 mM, pH 7.4, 72 h): completely prevented
- concentration capable of preventing the formation of MSU crystals (increased uric acid in solution) [1, 4]: ≤ 50 µM
- C100 (minimum concentration that totally prevented the formation of sodium urate crystals) ([1]; [UA]0 275 mg/L, [Na+] 400 mM, pH 7.4): 10
- C100 (minimum concentration that totally prevented the formation of sodium urate crystals) ([1]; [UA]0 300 mg/L, [Na+] 400 mM, pH 7.4): 20
- C100 (minimum concentration that totally prevented the formation of sodium urate crystals) ([1]; [UA]0 340 mg/L, [Na+] 400 mM, pH 7.4): 40
- C100 (minimum concentration that totally prevented the formation of sodium urate crystals) ([1]; [UA]0 375 mg/L, [Na+] 400 mM, pH 7.4): 60
- C100 (minimum concentration that totally prevented the formation of sodium urate crystals) ([1]; [UA]0 400 mg/L, [Na+] 400 mM, pH 7.4): 80
- C100 (minimum concentration that totally prevented the formation of sodium urate crystals) ([1]; [UA]0 425 mg/L, [Na+] 400 mM, pH 7.4): 100
- C100 (minimum concentration that totally prevented the formation of sodium urate crystals) ([1]; [UA]0 450 mg/L, [Na+] 400 mM, pH 7.4): 125
- effect on the crystallization of MSU (formation of MSU crystals) ([1]; [Na+] 400 mM, pH 7.4): strong inhibition
- solubility of sodium urate in the tested fluid [1, 4]: significantly increased
- crystallization inhibition compared with the other methylxanthine ([1]; same concentration, 5 days, uric acid 375 mg/L): significantly higher crystallization inhibition compared to 3-methylxanthine
- concentration that prevents the formation of sodium urate crystals for times longer than 48h ([1]; times longer than 48h): ~6 mg/L
- toxicity [2]: do not present any toxicity

Structure (SMILES): Cn1c(=O)c2c(ncn2C)n(C)c1=O [caffeine, 1,3,7-trimethylxanthine, reference compound]
- effect on the crystallization of MSU (formation of MSU crystals) ([1]; [Na+] 400 mM, pH 7.4): does not affect
- share metabolized to 7-methylxanthine ([3]; administered orally): 8%

Structure (SMILES): Cn1cnc2c1c(=O)[nH]c(=O)n2C [theobromine, 3,7-dimethylxanthine, reference compound]
- effect on the crystallization of MSU (formation of MSU crystals) ([1]; [Na+] 400 mM, pH 7.4): did not show any effect
- share metabolized to 7-methylxanthine ([3]; in vivo, po): 30%
